For orientation: Ki means a measure of affinity in units of concentration, obtained from inhibition or displacement. High values mean a looser hold on the target, low ones a stronger hold on the target.

This is an account of results in ChEMBL document CHEMBL1133714, “1-(2-Nitrophenyl)thiosemicarbazides: a novel class of potent, orally active non-peptide antagonist for the bradykinin B(2) receptor” (J Med Chem, 2000).

The target in this test is T1, B2 bradykinin receptor (Rattus norvegicus, UniProt P25023).
T1 sequence (P25023 whole entry): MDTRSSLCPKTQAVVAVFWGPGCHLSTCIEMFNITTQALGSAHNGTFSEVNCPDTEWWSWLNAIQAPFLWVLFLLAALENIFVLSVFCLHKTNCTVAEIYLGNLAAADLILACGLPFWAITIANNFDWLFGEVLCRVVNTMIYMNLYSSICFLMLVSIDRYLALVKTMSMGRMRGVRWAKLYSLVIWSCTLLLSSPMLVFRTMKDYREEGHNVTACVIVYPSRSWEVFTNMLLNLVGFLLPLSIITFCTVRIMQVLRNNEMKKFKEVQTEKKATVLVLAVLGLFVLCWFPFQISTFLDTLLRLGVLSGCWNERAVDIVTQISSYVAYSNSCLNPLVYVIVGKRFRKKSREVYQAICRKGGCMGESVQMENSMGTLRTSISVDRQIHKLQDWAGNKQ
Briefly: Inhibition of binding of [3H]BK to rat bradykinin B2 receptor expressed in NG108-15 neuroblastoma-glioma hybrid cell membranes. Details: species or system Membrane.
Molecule `NS(=O)(=O)c1ccc(N/N=C(/S)NC(c2ccccc2)c2ccccc2)c([N+](=O)[O-])c1` gave a Ki of 4 nM. `O=[N+]([O-])c1ccccc1CNC(=S)NCc1ccccc1`: the Ki came out at 7100 nM. Compared with the last molecule, the Ki is about 1800-fold higher. For the molecule `O=C(O)c1ccccc1NNC(=S)NCc1ccccc1`, the Ki is > 100000 nM. In turn, `CN(C)CCN(C)CCNC(=O)[C@H]1CCCN1S(=O)(=O)c1ccc(NNC(=S)NC(c2ccccc2)c2ccccc2)c([N+](=O)[O-])c1` had a Ki of 0.6 nM. This counts as sub-nanomolar. Then `O=[N+]([O-])c1cc(S(=O)(=O)NCc2ccccc2)ccc1NC/C(S)=N\Cc1ccccc1`, with > 100000 nM; and `O=[N+]([O-])c1cccc(N/N=C(\S)NCc2ccccc2)c1`, with > 100000 nM; and `O=[N+]([O-])c1cc(S(=O)(=O)NCc2ccccc2)ccc1NNC(=S)NCc1ccccc1`, with 310 nM. Then `O=[N+]([O-])c1cc(S(=O)(=O)NCc2ccccc2)ccc1N/N=C(\S)CCc1ccccc1`, with > 100000 nM. The molecule `CN(C)CCN(C)CCNC(=O)[C@@H]1CCCN1S(=O)(=O)c1ccc(NNC(=S)NC(c2ccccc2)c2ccccc2)c([N+](=O)[O-])c1` came in with a Ki of 0.5 nM. That is a sub-nanomolar value. Then `CN(C)CCCN(CCCN(C)C)S(=O)(=O)c1ccc(NNC(=S)NC(c2ccccc2)c2ccccc2)c([N+](=O)[O-])c1`, with 148 nM; and `NC(=O)c1ccc(N/N=C(/S)NC(c2ccccc2)c2ccccc2)c([N+](=O)[O-])c1`, with 1.8 nM.

The molecule `O=[N+]([O-])c1cc(S(=O)(=O)NCc2ccco2)ccc1NNC(=S)NCc1ccco1` showed a Ki of 540 nM. Then `S=C(NCc1ccccc1)NNc1ccccc1`, with 100000 nM; and `O=[N+]([O-])c1ccccc1N/N=C(/S)NCc1ccccc1`, with 1600 nM. Then `O=C(NCc1ccccc1)NCc1ccccc1[N+](=O)[O-]`, with > 100000 nM; and `O=[N+]([O-])c1ccccc1N/N=C(/S)NC(c1ccccc1)c1ccccc1`, with 38 nM.
